Test results taken from patent publication US9000050B2, “SHIP1 modulators and related methods” (The University of British Columbia, priority 2010, dated 2015).
Converted amounts (≈) assume the structure as drawn.

target: T1, His-hSHIP1 enzyme (Homo sapiens, UniProt Q92835); assay: His-hSHIP1 enzyme activation assay (IP4 substrate, Biomol Green phosphate release); assay type: biochemical; conditions: percentage increase relative to background; concentrations ≦300 μM
T1 construct: His
T1 sequence (Q92835 1-1189): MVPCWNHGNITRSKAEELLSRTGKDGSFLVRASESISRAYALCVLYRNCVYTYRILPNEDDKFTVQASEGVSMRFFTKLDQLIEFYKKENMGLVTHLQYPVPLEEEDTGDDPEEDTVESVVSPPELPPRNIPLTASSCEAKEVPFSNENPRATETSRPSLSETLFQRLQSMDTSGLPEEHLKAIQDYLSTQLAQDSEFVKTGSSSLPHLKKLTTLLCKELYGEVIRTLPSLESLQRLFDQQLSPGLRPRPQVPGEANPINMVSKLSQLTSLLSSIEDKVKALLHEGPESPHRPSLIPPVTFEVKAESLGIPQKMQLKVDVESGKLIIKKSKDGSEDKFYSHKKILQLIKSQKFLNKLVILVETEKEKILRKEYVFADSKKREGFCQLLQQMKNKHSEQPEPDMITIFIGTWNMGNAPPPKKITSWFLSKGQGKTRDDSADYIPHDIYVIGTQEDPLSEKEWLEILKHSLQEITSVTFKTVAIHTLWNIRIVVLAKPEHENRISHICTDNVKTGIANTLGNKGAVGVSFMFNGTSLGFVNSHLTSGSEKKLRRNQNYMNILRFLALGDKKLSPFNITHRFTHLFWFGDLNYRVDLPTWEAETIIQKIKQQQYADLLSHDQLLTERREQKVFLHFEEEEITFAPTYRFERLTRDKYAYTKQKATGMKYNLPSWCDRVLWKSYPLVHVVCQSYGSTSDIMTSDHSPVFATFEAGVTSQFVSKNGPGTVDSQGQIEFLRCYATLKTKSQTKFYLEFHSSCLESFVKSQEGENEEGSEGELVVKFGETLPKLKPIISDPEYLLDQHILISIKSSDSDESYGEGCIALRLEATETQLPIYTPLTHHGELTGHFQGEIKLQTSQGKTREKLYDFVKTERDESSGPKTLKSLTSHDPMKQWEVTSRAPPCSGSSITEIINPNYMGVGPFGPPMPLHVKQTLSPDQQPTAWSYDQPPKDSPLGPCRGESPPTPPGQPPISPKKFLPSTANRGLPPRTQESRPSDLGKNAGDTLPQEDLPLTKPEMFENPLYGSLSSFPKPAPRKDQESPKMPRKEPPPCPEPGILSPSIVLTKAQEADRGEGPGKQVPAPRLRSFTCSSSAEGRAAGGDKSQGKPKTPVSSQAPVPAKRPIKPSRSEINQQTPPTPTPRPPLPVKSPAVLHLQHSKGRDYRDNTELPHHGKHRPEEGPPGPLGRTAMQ
Description: Test compounds are dissolved in 95% ethanol to form stock solutions. Before screening, the stock solutions are diluted with Phosphatase Assay Buffer (20 mM Tris-HCL, 10 mM MgCl2 pH 7.5, 0.02% Tween 20) to form working assay solutions that contain 10% ethanol. The assay is carried out on 96-well microtiter plates using a modified procedure of that reported by Ong et al., Blood 110, 1942-1949, 2007 and Yang et al., Org Lett 7, 1073-1076, 2005, both of which references are incorporated herein by reference in their entirety.
Each reaction contains 5 μL of His-hSHIP1 enzyme (15-20 ng), 10 μL of the substrate, 1,3,4,5-inositol tetrakisphosphate (IP4; 50 μM final), 5 μL of Phosphatase Assay Buffer, and 5 μL of test compound at various concentrations in 10% ethanol (0-300 μM final). Control blanks are also prepared by replacing His-hSHIP1 enzyme, IP4, or test compounds with Phosphatase Assay Buffer. After adding the reaction components in a 96-well microtiter plate on ice, the reaction is mixed by briefly shaking the plate vigorously. The reaction is then incubated at 37° C. for 15 min with gentle shaking followed by addition of 100 μL of Biomol Green Reagent (BIOMOL, PA, USA) to terminate the reaction. The free phosphate released from IP4 by His-hSHIP1 binds to the Biomol Green Reagent, which turns the dye to green color. After incubating the mixture for 20 min at room temperature for color development, the absorbance is read with SpectraMax Plus 96-well plate reader (Molecular Devices, Sunnyvale, Calif., USA) at a wavelength of 650 nm.
Percent (%) activation in Table 2 is expressed as a percentage increase relative to background. Scoring is expressed as follows: +(<25%); ++(≧25% but <50%); +++(≧50%).

Compound | Activation of His-hSHIP1 Enzyme, Scoring (percent activation)
COc1cc2c(c(OC)c1)[C@@]1(C)CC[C@@H]3C(C)(C)[C@H](O)CC[C@@]3(C)[C@@H]1C2 (racemic) [5a/5b] | ++ (≧25% but <50%)
CC1(C)C(=O)CC[C@]2(C)[C@@H]1CC[C@]1(C)c3c(O)cc(O)cc3C[C@@H]21 (racemic) [7a/7b] | +++ (≧50%)
CC1(C)[C@H](O)CC[C@]2(C)[C@@H]1CC[C@]1(C)c3c(O)cc(O)cc3C[C@@H]21 (racemic) [16a/16b] | ++ (≧25% but <50%)
COc1cc(C)c2c(c1)C[C@H]1[C@]3(C)CC[C@@H](O)C(C)(C)[C@H]3CC[C@]21C (racemic) [17a/17b] | ++ (≧25% but <50%)
Cc1cc(O)cc2c1[C@@]1(C)CC[C@@H]3C(C)(C)C(=O)CC[C@@]3(C)[C@@H]1C2 (racemic) [19a/19b] | ++ (≧25% but <50%)
CC1(C)[C@H]2CC[C@]3(C)c4c(O)cc(O)cc4C[C@H]3[C@]2(C)CC[C@@H]1N.Cl [8a•HCl, (3S,4aS,6aS,11aS,11bS)-3-Amino-4,4,6a,11b-tetramethyl-2,3,4,4a,5,6,6a,11,11a,11b-decahydro-1H-benzo[a]fluorene-7,9-diol Hydrochloride] | + (<25%)
CC1(C)[C@@H](N)CC[C@]2(C)[C@H]3Cc4cc(O)cc(O)c4[C@]3(C)CC[C@@H]12 [Compound 9b] | + (<25%)

tested on: not listed separately; assay: Water solubility (24 h stirring in deionized water, HPLC); assay type: physicochemical; conditions: thermodynamic from solid, stirred 24 hours, read-out: Soluble Concentration
Description: Samples are weighed accurately in duplicate (˜3 mg each) in 4 mL glass vials. The appropriate amount of deionized water is added to obtain a final concentration of 6 mg/mL. A stir bar is placed in the vial and the two mixtures are stirred for 24 hours, after which the samples are filtered using a glass filter membrane. The resulting filtrate is centrifuged in a glass conical tube for 10 minutes at 10,000 rpm to sediment any precipitate that may have passed through the glass membrane. The supernatant is sampled for HPLC analysis. The concentration of the test compound is determined by HPLC using a six-point standard curve of the compound prepared in methanol.

Compound | solubility at 24 h [µg/mL]
CC1(C)[C@H]2CC[C@]3(C)c4c(O)cc(O)cc4C[C@H]3[C@]2(C)CC[C@@H]1N.Cl [8a•HCl, (3S,4aS,6aS,11aS,11bS)-3-Amino-4,4,6a,11b-tetramethyl-2,3,4,4a,5,6,6a,11,11a,11b-decahydro-1H-benzo[a]fluorene-7,9-diol Hydrochloride] | 1400
CC1(C)[C@@H](O)CC[C@]2(C)[C@H]3Cc4cc(O)cc(O)c4[C@]3(C)CC[C@@H]12 [Compound 16b, (3S,4aR,6aR,11aR,11bR)-2,3,4,4a,5,6,6a,11,11a,11b-decahydro-4,4,6a,11b-tetramethyl-1H-benzo[a]fluorene-3,7,9-triol] | 133 (≈ 402 µM)
